From PubChem BioAssay (NCI) come the findings set out here.

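Compound exposure: 48 hours, 5 concentrations, 96-well plates. TGI: total growth inhibition.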

The first assay relates to HOP-62 NSCLC. As to the kind of experiment: growth of human tumour cells (NCI), 48 h.
Compound `COCO[C@@H]1C[C@H]2C(=O)Nc3ccccc3C(=O)N2C1` registered a TGI of 90.1 µM.

Regarding `O=c1c2cc([N+](=O)[O-])cnc2sn1-c1ccc([N+](=O)[O-])cc1`, the TGI was > 100 µM.

As to `Cc1ccc(C(=O)O)cc1S(=O)(=O)Nn1cnc2ccc(S(=O)(=O)Nc3ccccc3C(=O)O)cc2c1=O`, the TGI was > 100 µM.

Regarding `Cc1ccc(-c2n[nH]c(=O)n2N2C(=O)c3ccccc3C2=O)cc1`, the TGI was > 100 µM.

Regarding `S=C1Nc2ccccc2SC1c1ccccc1` (stereo unspecified), the TGI worked out at 55.2 µM.

As to `CN(C)C(=O)O/N=C1/C(c2c(O)[nH]c3ccccc23)=Nc2ccccc21`, the TGI turned out to be 48.9 µM.

Turning to `O=[N+]([O-])c1ccc2c(c1)c(OCc1ccccc1)nn2Cc1ccccc1`, the TGI was > 100 µM.

Turning to `Cc1cc(Cc2cc(C)c(N)cc2N)c(N)cc1N`, the TGI is > 100 µM.

Consider `COC(=O)c1ccccc1CC1Cc2ccc3c(c2C1=O)CCCC3` (stereo unspecified), for which the TGI was > 100 µM.

On to `O=C1/C(=C\c2ccccc2)C(NC2CCCCC2)c2ccccc21` (stereo unspecified), for which the TGI is 7.21 µM.

For `CCOC(=O)C1(C/C=C/CBr)Cc2ccccc2C1=O` (stereo unspecified), the TGI was determined as 14.8 µM.

With `COc1ccc(-c2c(C#N)c(-c3ccc(C)cc3)n(NS(=O)(=O)c3ccc(C)cc3)c(=O)c2C#N)cc1`, the TGI was > 100 µM.

For the compound `Clc1ccccc1C(SCc1ccccc1)SCc1ccccc1`, the TGI is > 100 µM.

The test system of the next assay is HOP-92 NSCLC. In words: growth of human tumour cells (NCI), 48 h.
For `COc1ccc(-c2cc(O)c3nc4ccccc4n3c2)cc1`, the TGI was > 100 µM.

`C[C@@H]1CC[C@]2(C(=O)O)CC[C@]3(C)C(=CC[C@@H]4[C@@]5(C)CC[C@H](O)C(C)(C)[C@@H]5CC[C@]43C)[C@@H]2[C@]1(C)O` registered a TGI of 20.7 µM.

`CC(C)=CCc1c2c(c3occ(-c4ccc(O)cc4)c(=O)c3c1O)CC(C(C)(C)O)O2` (stereo unspecified) registered a TGI of 33.5 µM.

Turning to `COc1ccc(C2CC(c3c(O)ccc4ccccc34)=NN2C(C)=O)cc1OC` (stereo unspecified), the TGI is > 100 µM.

For `C1CN(c2nc3c(nnc4nc(N5CCOCC5)sc43)s2)CCO1`, the TGI was > 100 µM.

As for `NC(N)=N/N=C/c1c(-c2ccc(N)cc2)nc2sccn12`, the TGI is > 100 µM.

Take `CCOC(=O)CSc1c(C(=O)OCC)c(=O)n(-c2ccccc2)c(=S)n1-c1ccccc1`: the TGI is 20.6 µM.

For `C=CC1(C)CCC2C(=CCC3C2(C)CC(O)C(O)C3(C)COC2OC(C(=O)O)C(O)C(O)C2O)C1` (stereo unspecified) (tested in a mixture with another compound), the TGI was > 100 µM.

On to `Cc1ccc(C(=O)O)cc1S(=O)(=O)Nn1cnc2ccc(S(=O)(=O)Nc3ccccc3C(=O)O)cc2c1=O`, for which the TGI is > 100 µM.

As for `CN(C)C(=O)O/N=C1/C(c2c(O)[nH]c3ccccc23)=Nc2ccccc21`, the TGI turned out to be 33 µM.

Consider `O=C1/C(=C\c2ccccc2)C(NC2CCCCC2)c2ccccc21` (stereo unspecified), for which the TGI turned out to be 4.8 µM.

`COc1ccc(-c2c(C#N)c(-c3ccc(C)cc3)n(NS(=O)(=O)c3ccc(C)cc3)c(=O)c2C#N)cc1`: the TGI was > 100 µM.

As to `Clc1ccccc1C(SCc1ccccc1)SCc1ccccc1`, the TGI was > 100 µM.

The test system of the next assay is NCI-H23 lung. As to the kind of experiment: growth of human tumour cells (NCI), 48 h.
Consider `COc1ccc(-c2cc(O)c3nc4ccccc4n3c2)cc1`, for which the TGI was > 100 µM.

Compound `C[C@@H]1CC[C@]2(C(=O)O)CC[C@]3(C)C(=CC[C@@H]4[C@@]5(C)CC[C@H](O)C(C)(C)[C@@H]5CC[C@]43C)[C@@H]2[C@]1(C)O` registered a TGI of 35.9 µM.

In the case of `CC(C)=CCc1c2c(c3occ(-c4ccc(O)cc4)c(=O)c3c1O)CC(C(C)(C)O)O2` (stereo unspecified), the TGI amounted to 36 µM.

`CC1(C)N=[N+]([O-])C1(C)C`: the TGI was > 100 µM.

For the compound `COc1ccc(C2CC(c3c(O)ccc4ccccc34)=NN2C(C)=O)cc1OC` (stereo unspecified), the TGI was determined as 79 µM.

As to `C1CN(c2nc3c(nnc4nc(N5CCOCC5)sc43)s2)CCO1`, the TGI is > 100 µM.

The compound `NC(N)=N/N=C/c1c(-c2ccc(N)cc2)nc2sccn12` showed a TGI of 95.2 µM.

Regarding `CN1C(=O)C2CCC(=O)N2c2cccnc21` (stereo unspecified), the TGI is > 100 µM.

Take `CCOC(=O)CSc1c(C(=O)OCC)c(=O)n(-c2ccccc2)c(=S)n1-c1ccccc1`: the TGI is > 100 µM.

As to `C=CC1(C)CCC2C(=CCC3C2(C)CC(O)C(O)C3(C)COC2OC(C(=O)O)C(O)C(O)C2O)C1` (stereo unspecified) (tested in a mixture with another compound), the TGI was > 100 µM.

`COCO[C@@H]1C[C@H]2C(=O)Nc3ccccc3C(=O)N2C1`: the TGI was > 100 µM.

For the compound `O=c1c2cc([N+](=O)[O-])cnc2sn1-c1ccc([N+](=O)[O-])cc1`, the TGI was > 100 µM.

On to `Cc1ccc(C(=O)O)cc1S(=O)(=O)Nn1cnc2ccc(S(=O)(=O)Nc3ccccc3C(=O)O)cc2c1=O`, for which the TGI was > 100 µM.

Turning to `Cc1ccc(-c2n[nH]c(=O)n2N2C(=O)c3ccccc3C2=O)cc1`, the TGI is > 100 µM.

In the case of `S=C1Nc2ccccc2SC1c1ccccc1` (stereo unspecified), the TGI is > 100 µM.

As for `CN(C)C(=O)O/N=C1/C(c2c(O)[nH]c3ccccc23)=Nc2ccccc21`, the TGI was > 100 µM.

`O=[N+]([O-])c1ccc2c(c1)c(OCc1ccccc1)nn2Cc1ccccc1`: the TGI is > 100 µM.

For `Cc1cc(Cc2cc(C)c(N)cc2N)c(N)cc1N`, the TGI was > 100 µM.

Turning to `COC(=O)c1ccccc1CC1Cc2ccc3c(c2C1=O)CCCC3` (stereo unspecified), the TGI is > 100 µM.

Turning to `O=C1/C(=C\c2ccccc2)C(NC2CCCCC2)c2ccccc21` (stereo unspecified), the TGI is 2.28 µM.

For the compound `CCOC(=O)C1(C/C=C/CBr)Cc2ccccc2C1=O` (stereo unspecified), the TGI stood at 4.47 µM.

In the case of `Clc1ccccc1C(SCc1ccccc1)SCc1ccccc1`, the TGI is > 100 µM.

The test system of the next assay is NCI/ADR-RES ovarian. As to the kind of experiment: growth of human tumour cells (NCI), 48 h.
On to `COc1ccc(-c2cc(O)c3nc4ccccc4n3c2)cc1`, for which the TGI was > 100 µM.

In turn, `C[C@@H]1CC[C@]2(C(=O)O)CC[C@]3(C)C(=CC[C@@H]4[C@@]5(C)CC[C@H](O)C(C)(C)[C@@H]5CC[C@]43C)[C@@H]2[C@]1(C)O` returned a TGI of 32.6 µM.

`CC(C)=CCc1c2c(c3occ(-c4ccc(O)cc4)c(=O)c3c1O)CC(C(C)(C)O)O2` (stereo unspecified) came in with a TGI of 40.6 µM.

`CC1(C)N=[N+]([O-])C1(C)C`: the TGI is > 100 µM.

For the compound `COc1ccc(C2CC(c3c(O)ccc4ccccc34)=NN2C(C)=O)cc1OC` (stereo unspecified), the TGI was > 100 µM.

Consider `C1CN(c2nc3c(nnc4nc(N5CCOCC5)sc43)s2)CCO1`, for which the TGI was > 100 µM.

Turning to `NC(N)=N/N=C/c1c(-c2ccc(N)cc2)nc2sccn12`, the TGI was > 100 µM.

As to `CN1C(=O)C2CCC(=O)N2c2cccnc21` (stereo unspecified), the TGI was > 100 µM.

Turning to `CCOC(=O)CSc1c(C(=O)OCC)c(=O)n(-c2ccccc2)c(=S)n1-c1ccccc1`, the TGI came out at 8.6 µM.

With `COCO[C@@H]1C[C@H]2C(=O)Nc3ccccc3C(=O)N2C1`, the TGI was > 100 µM.

For the compound `O=c1c2cc([N+](=O)[O-])cnc2sn1-c1ccc([N+](=O)[O-])cc1`, the TGI amounted to 99.3 µM.

As to `Cc1ccc(C(=O)O)cc1S(=O)(=O)Nn1cnc2ccc(S(=O)(=O)Nc3ccccc3C(=O)O)cc2c1=O`, the TGI was > 100 µM.

For `Cc1ccc(-c2n[nH]c(=O)n2N2C(=O)c3ccccc3C2=O)cc1`, the TGI is > 100 µM.

As to `S=C1Nc2ccccc2SC1c1ccccc1` (stereo unspecified), the TGI was > 100 µM.

As for `CN(C)C(=O)O/N=C1/C(c2c(O)[nH]c3ccccc23)=Nc2ccccc21`, the TGI was > 100 µM.

As for `O=[N+]([O-])c1ccc2c(c1)c(OCc1ccccc1)nn2Cc1ccccc1`, the TGI is > 100 µM.

For `Cc1cc(Cc2cc(C)c(N)cc2N)c(N)cc1N`, the TGI is > 100 µM.

Regarding `COC(=O)c1ccccc1CC1Cc2ccc3c(c2C1=O)CCCC3` (stereo unspecified), the TGI is > 84.9 µM.
